Data published in patent EP1247803A2, “Indolinone compounds suitable for modulation of protein kinases” (Sugen, Inc., priority 1996, dated 1998).

Assays:
PDGF-R = PDGF-R (Homo sapiens, UniProt P09619); test: PDGF-R ELISA; assay type: cell-based
Description: A PDGF-R ELISA is described in International Patent Publication No. WO 96/40116, published December 19, 1996 by Tang et al.

EGFR = molecular target: T1, EGFR (Homo sapiens, UniProt P00533); test: EGFR ELISA assay (in vitro kinase activity, EGFR captured from A431 cell lysate); assay type: biochemical; parameters: concentration or dose not given beside the values
T1 construct: Add 7 ug A431 cell lysate per well (EGFR source); endogenous in cells; host or cells: A431
In short: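 EGFR from A431 lysate was captured on anti-EGFR antibody-coated plates and preincubated with compounds for 30 min. Autophosphorylation ran 5 min with 3 uM ATP and 5 mM MnCl2 (final), stopped with 20 mM EDTA. Phosphotyrosine was detected by anti-pTyr ELISA with ABTS/H2O2, read at 410 nm.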

MET = MET biochemical kinase assay; parameters: species or system human; concentration or dose not given beside the values
In short: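 Capture ELISA: anti-rabbit Fc coat, rabbit anti-MET cytoplasmic domain pAb, lysate MET captured, washed. Compound + kinase buffer (ATP, divalent metals). Readout anti-pTyr-HRP/TMB, colorimetric.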

T1 sequence (P00533 25-1210): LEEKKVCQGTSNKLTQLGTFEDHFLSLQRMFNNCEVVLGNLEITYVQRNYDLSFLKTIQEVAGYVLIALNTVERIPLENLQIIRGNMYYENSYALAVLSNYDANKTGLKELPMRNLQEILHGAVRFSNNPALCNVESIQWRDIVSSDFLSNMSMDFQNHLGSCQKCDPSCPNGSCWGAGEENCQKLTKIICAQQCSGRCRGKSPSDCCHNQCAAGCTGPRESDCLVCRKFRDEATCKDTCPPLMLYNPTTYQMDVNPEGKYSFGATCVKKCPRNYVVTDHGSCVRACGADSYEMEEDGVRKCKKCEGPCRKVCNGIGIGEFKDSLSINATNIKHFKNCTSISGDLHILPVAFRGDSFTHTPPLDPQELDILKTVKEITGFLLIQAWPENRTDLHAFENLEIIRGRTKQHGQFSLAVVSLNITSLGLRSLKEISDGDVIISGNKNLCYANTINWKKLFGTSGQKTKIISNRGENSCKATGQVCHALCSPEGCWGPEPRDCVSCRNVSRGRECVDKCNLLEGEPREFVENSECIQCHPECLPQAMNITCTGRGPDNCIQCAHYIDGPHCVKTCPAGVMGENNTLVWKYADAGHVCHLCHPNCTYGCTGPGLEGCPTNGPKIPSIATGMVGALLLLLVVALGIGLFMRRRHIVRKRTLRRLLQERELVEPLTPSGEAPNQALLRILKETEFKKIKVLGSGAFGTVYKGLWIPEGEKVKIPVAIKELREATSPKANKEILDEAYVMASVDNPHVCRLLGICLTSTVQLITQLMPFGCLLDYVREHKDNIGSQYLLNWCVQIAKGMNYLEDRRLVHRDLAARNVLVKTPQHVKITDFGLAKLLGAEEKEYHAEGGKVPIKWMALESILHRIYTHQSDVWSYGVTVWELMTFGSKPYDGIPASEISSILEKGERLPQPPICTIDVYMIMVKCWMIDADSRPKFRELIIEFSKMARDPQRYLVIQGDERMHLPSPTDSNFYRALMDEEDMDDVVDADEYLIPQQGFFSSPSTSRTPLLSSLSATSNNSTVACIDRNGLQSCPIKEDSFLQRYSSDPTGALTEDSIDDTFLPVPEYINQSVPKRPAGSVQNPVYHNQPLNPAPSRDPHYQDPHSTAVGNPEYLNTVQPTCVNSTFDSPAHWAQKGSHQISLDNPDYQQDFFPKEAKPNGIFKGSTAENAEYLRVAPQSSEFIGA
PDGF-R, sequence (P09619 33-1106, species assumed): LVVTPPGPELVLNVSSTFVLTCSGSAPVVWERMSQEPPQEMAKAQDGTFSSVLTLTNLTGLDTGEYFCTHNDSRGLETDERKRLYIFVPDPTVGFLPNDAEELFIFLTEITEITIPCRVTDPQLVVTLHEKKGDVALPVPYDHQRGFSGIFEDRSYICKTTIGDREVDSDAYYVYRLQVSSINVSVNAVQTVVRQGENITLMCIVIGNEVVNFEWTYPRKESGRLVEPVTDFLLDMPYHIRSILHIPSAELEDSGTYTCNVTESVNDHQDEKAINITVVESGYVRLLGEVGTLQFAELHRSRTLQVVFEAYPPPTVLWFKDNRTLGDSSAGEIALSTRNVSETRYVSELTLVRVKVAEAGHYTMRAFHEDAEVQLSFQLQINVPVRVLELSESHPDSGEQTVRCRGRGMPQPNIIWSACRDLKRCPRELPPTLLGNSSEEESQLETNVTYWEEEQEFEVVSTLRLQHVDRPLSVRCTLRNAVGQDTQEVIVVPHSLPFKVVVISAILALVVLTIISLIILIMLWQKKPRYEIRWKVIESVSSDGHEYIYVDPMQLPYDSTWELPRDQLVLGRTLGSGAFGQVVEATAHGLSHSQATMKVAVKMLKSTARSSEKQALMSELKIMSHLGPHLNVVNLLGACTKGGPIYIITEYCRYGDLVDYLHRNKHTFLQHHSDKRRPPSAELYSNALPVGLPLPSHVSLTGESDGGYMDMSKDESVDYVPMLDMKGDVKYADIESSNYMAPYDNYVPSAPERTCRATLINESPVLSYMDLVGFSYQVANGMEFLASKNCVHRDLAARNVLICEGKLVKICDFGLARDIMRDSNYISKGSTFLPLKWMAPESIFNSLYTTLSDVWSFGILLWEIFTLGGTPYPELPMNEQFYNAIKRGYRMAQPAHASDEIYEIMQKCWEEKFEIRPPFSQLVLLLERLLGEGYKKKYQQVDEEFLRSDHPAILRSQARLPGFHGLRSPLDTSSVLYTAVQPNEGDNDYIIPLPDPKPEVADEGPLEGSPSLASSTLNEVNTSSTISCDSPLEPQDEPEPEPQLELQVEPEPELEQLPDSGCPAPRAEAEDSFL

| Compound | PDGF Kinase %Inhibition (PDGF-R) | Biochem EGFR %Inhibition (EGFR) | Met Kinase % Inhibition (MET) |
| --- | --- | --- | --- |
| CNS(=O)(=O)c1ccc2c(c1)C(=Cc1cccc(OC)c1OC)C(=O)N2 [10727/D11] | 17.4% | -23.7% | 17.3% |
| COc1ccc(OC)c(C=C2C(=O)Nc3c(Br)cc(Br)cc32)c1 [10728/A02] | -7.9% | 9.2% | 25.6% |
| Cc1c(Br)ccc2c1C(=Cc1cccc(C(F)(F)F)c1F)C(=O)N2 [10728/C07] | 8.9% | 8.3% | 46.3% |
| O=C1Nc2ccc(CCCl)cc2C1=Cc1ccccc1Sc1ccc(Cl)cc1 [10727/G05] | -2.3% | 11.2% | 7.1% |
| CNS(=O)(=O)c1ccc2c(c1)C(=Cc1coc3ccccc3c1=O)C(=O)N2 [10727/D07] | -14.7% | 10.5% | 50.6% |
| O=C1Nc2c(Br)cc(Br)cc2C1=Cc1c(F)cccc1C(F)(F)F [10728/A09] | 10.3% | 19.3% | 53.1% |
| N#Cc1ccc(C=C2C(=O)Nc3ccc(S(=O)(=O)Nc4ccc(C(F)(F)F)cc4)cc32)cc1 [10727/E09] | 15.9% | 15.1% | 28.4% |
| O=C1Nc2c(Br)cc(Br)cc2C1=Cc1ccc2c(c1)Cc1ccccc1-2 [10728/A06] | -3.1% | 17.2% | 19.7% |
| N#Cc1cccc(C=C2C(=O)Nc3ccc(S(=O)(=O)N4CCOCC4)cc32)c1 [10727/F08] | 10.1% | -5.4% | 36.9% |
